Results: publication PMC4393083, “Antiviral Activity and Possible Mechanism of Action of Constituents Identified in Paeonia lactiflora Root toward Human Rhinoviruses” (PLoS ONE, 2015)
Where two headings read alike, the source gives them in different places.

How the values were obtained:
HRV-2 [1] = assay: Cytopathic effect inhibition assay (MTT), HRV-2 in HeLa cells; type: cell-based, human rhinovirus; conditions: read-out: IC50 (95% CL) HRV-2
Procedure: (§1) Monolayers of HeLa and MRC5 cells were seeded onto a 96-well culture plate as stated previously. Subsequently, 90 μL media containing several different concentrations (1–1000 μg/mL) of each test material in DMSO was put into the wells, and then 10 μL of 10×TCID50 of the virus stock was added to produce an appropriate CPE within 2 days after infection. Ribavirin served as a reference control and was similarly prepared. Negative controls consisted of the DMSO solution. Viral inhibition rate (VIR) (%) was calculated according to the formula [21], VIR = (A tV—A cV)/(A cd—A cV) × 100, where A tV is the optical density measured with a given concentration of the test compound in HRV infected cells; A cV is the optical density measured for the control untreated HRV infected cells; A cd is the optical density measured for the control untreated HRV uninfected cells.
(§2) The CC50 and IC50 values were determined using GraphPad Prism 5 software program (GraphPad Software, La Jolla, CA). […] The selectivity index (SI) was determined as the ratio of CC50 to IC50 [23]. All data represent the mean ± SD of duplicate or triplicate samples of three independent experiments. Statistical analyses were carried out using SAS 9.13 program (SAS Institute, Cary, NC). Data from two groups were analyzed by a Student’s t-test, and multiple groups were analyzed by a one-way analysis of variance and Bonferroni multiple comparison post-test.

[2] = test system: two HRVs (HRV-2 and HRV-4); assay: Cytopathic effect inhibition assay, summary over both serotypes; type: cell-based, human rhinovirus; conditions: Rhinovirus A; range over HRV-2 and HRV-4, HeLa and MRC5 cells; read-out: IC50 toward two HRVs (range)
Procedure: as §1, §2

HRV-2 [3] = assay: Virus titration assay, HRV-2 in MRC5 cultures; type: cell-based, human rhinovirus; conditions: PGG 20 μg/mL, PA 100 μg/mL, ribavirin 100 μg/mL; for Log (TCID50/mL) ± SE HRV-2: infected MRC5 cultures, 48 h, infected untreated control 3.93; for Reduction of virus replication (Log (TCID50/mL)) ± SE HRV-2: vs infected untreated control
Procedure: Virus titers in infected MRC-5 cultures treated with PA and PGG were measured as TCID50 using MTT-based titration method. In brief, MRC5 cells were seeded at 10^5 cells/mL in a 6-well plate. After 24 h, the cell monolayers were treated with 100 μg/mL PA or 20 μg/mL PGG and infected with HRV-2 or HRV-4 in a concentration of 10×TCID50/mL. Uninfected untreated and infected untreated cultures were included in the assay. The 100 μg/mL of ribavirin was used as a reference control. After 48 h incubation at 37°C, the cultures were frozen and thawed at −80°C/25°C. Cell debris was removed by centrifugation (2000 rpm) and the virus supernatants were collected. Virus titration was then performed in HeLa cell cultures. Initially, a 1:10 dilution of each supernatant was prepared followed by 10 serial 2-fold-dilutions, and added to HeLa cell monolayers. After 48 h, cell mortality was measured using an MTT assay stated previously. Graphs were built by plotting dead cell percentages toward virus dilution factors of each virus supernatant. The 50% infectivity point was calculated through a linear regression analysis of the curve.

HRV-4 particles = assay: Infectivity of HRV-4 particles (preincubation of virus); type: cell-based, human rhinovirus; conditions: MRC5 cells, 2 days; for inhibition at 100 µg/mL / inhibition at 20 µg/mL: Human rhinovirus sp.
Procedure: The effects of the test compounds on the infectivity of HRV-4 particles were elucidated as described previously by Choi et al.. […] HRV-4 was preincubated with 100 μg/mL PA, 20 μg/mL PGG, or 100 μg/mL ribavirin for 1 h at 4°C. Monolayers of MRC5 cells were infected with the pretreated or untreated HRV-4 for 1 h at 37°C. Unbound virus was removed by washing the wells with PBS twice, and then cells were incubated in fresh medium supplemented with or without test compounds at 37°C. After 2 days, MTT test and antiviral activity were carried out as stated previously.

ICAM-1 = ICAM-1 mRNA expression, qRT-PCR in MRC5; type: cell-based, human; conditions: MRC5, 2 days after HRV-2 or HRV-4 infection; 100 μg/mL PA, 20 μg/mL PGG
Procedure: (§3) To evaluate the level of gene expression, real-time qRT-PCR with SYBR Green dye was carried out. HRV-2 or HRV-4 infected and noninfected cultures of MRC5 monolayers grown in 25 cm^2 cell culture flasks (Corning, NY) were treated with 100 μg/mL PA or 20 μg/mL PGG. After incubation at 37°C and 5% CO2 for 2 days, total RNA was extracted from the culture cells using the RNeasy Plus Mini Kit (Qiagen, Hilden, Germany) according to the manufacturer’s instructions. Contaminated genomic DNA was removed using RQ1 RNase-free DNase (Promega, Madison, WI). […] The PCR conditions were as follows: 50°C for 2 min, 95°C for 10 min, and then 50 cycles of 95°C for 15 s and either 60°C [β2-microglobulin (B2M), interleukin (IL)-6, IL-8, LDLR, ICAM-1, HRV-2, and HRV-4] or 58°C (B2M and IL-1β) or 55°C [B2M, Toll-like receptor 3 (TLR3), tumor necrosis factor (TNF), and interferon beta (IFNβ)] for 30 s. mRNA expression level of target gene was normalized to mRNA expression level for the housekeeping gene B2M and analyzed by the 2^–ΔΔCT method using StepOne Software v2.1 and DataAssist Software (Applied Biosystems). […]
(§4) The expressions of ICAM-1 and LDLR were examined using real-time qRT-PCR and Western blot. […] The concentrations of ICAM-1 in the test samples were determined from OD values using standard curve of each assay.

LDLR = LDLR mRNA expression, qRT-PCR in MRC5; type: cell-based, human; conditions: MRC5, 2 days after HRV-2 or HRV-4 infection; 100 μg/mL PA, 20 μg/mL PGG
Procedure: as §3, §4

[4] = HRV4, 48 h, 100 μg/mL PA, 20 μg/mL PGG, 100 μg/mL ribavirin, read-out: inhibition rate, continuous presence during infection
[5] = HRV4, virus preincubated 1 h at 4°C with 100 μg/mL PA, 20 μg/mL PGG or 100 μg/mL ribavirin, read-out: inhibition rate, preincubation of HRV-4 particles

Compound	IC50 (HRV-2 [1]; Rhinovirus A, HRV2, HeLa) [µM]	IC50 (HRV-2 [1]) [µM]	IC50 [2] [µM]	reduction of the HRV-2 titer (HRV-2 [3]) [%]	Log (TCID50/mL) ± SE HRV-2 (HRV-2 [3])	Reduction of virus replication (Log (TCID50/mL)) ± SE HRV-2 (HRV-2 [3])	inhibition at 100 µg/mL (HRV-4 particles; [4]) [%]	inhibition at 100 µg/mL (HRV-4 particles; [5]) [%]	effect on HRV-induced ICAM-1 mRNA expression (ICAM-1)	effect on LDLR mRNA expression (LDLR)	inhibition rate, preincubation of HRV-4 particles (HRV-4 particles; virus preincubated 1 h at 4°C with 100 μg/mL PA, 20 μg/mL PGG or 100 μg/mL ribavirin) [%]	inhibition at 20 µg/mL (HRV-4 particles; [4]) [%]	inhibition at 20 µg/mL (HRV-4 particles; [5]) [%]
COc1ccc(C(C)=O)c(O)c1 [PA, paeonol]	608	608	492 to 608	22.4	3.05 ± 0.046 b Log (TCID50/mL)	0.88 ± 0.046 Log (TCID50/mL)	57.2	10.6	reduced	decreased			
NC(=O)c1ncn([C@@H]2O[C@H](CO)[C@@H](O)[C@H]2O)n1 [Ribavirin, reference compound]	304	304	240 to 324	30.3	2.74 ± 0.020 a Log (TCID50/mL)	1.19 ± 0.020 Log (TCID50/mL)	58.2				10.0		
O=C(OC[C@H]1O[C@@H](OC(=O)c2cc(O)c(O)c(O)c2)[C@H](OC(=O)c2cc(O)c(O)c(O)c2)[C@@H](OC(=O)c2cc(O)c(O)c(O)c2)[C@@H]1OC(=O)c1cc(O)c(O)c(O)c1)c1cc(O)c(O)c(O)c1 [PGG, 1,2,3,4,6-penta-O-galloyl-β-D-glucopyranose]	11.6	11.6	11.6 to 17.9	17.3	3.25 ± 0.075 b ^b Log (TCID50/mL)	0.68 ± 0.075 Log (TCID50/mL)			reduced	decreased		54.5	11.2
